The conditions of series [1]: room temperature, previously known salt forms, Table 2 (WO 2008/113359), cited from earlier work.
Series [2] is described as follows: Room temperature (aqueous) solubility of salt forms. As to conditions: for aqueous solubility: concentration equivalent to free base; for Solubility: lactate forms, Table 1; for pH at the solubility value: printed in the solubility cell. Format: physicochemical.
Another series deals with serotonin transporter (Homo sapiens, UniProt P31645). As to conditions: cited from earlier work.
For series [3], the system named is extracellular levels of serotonin, noradrenaline, dopamine and acetylcholine. As to conditions: rat brains; cited from earlier work.
For the next series, the target named is T1, 5-HT3 receptor (Homo sapiens, UniProt P46098).
T1 sequence (P46098 24-478): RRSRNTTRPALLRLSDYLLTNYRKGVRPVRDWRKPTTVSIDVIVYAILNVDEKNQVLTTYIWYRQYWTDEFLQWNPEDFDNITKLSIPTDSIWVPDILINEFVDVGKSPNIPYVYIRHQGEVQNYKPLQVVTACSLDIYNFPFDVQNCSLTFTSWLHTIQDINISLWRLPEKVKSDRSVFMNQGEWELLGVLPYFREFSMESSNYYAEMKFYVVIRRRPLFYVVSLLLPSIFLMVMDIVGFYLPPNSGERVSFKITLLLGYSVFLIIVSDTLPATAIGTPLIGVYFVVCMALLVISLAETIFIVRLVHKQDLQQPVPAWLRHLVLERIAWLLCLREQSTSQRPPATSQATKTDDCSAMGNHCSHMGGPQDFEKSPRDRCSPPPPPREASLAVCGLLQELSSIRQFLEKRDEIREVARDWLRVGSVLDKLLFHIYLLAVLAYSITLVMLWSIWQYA
As to conditions: listed as compound I; cited from earlier work.

Series [4] is described as follows: Crystal form behaviour on exposure to water / aqueous slurry. It counts as physicochemical. As to conditions: exposed to water / aqueous slurry.
For series [5] the following is noted: depressed patients; cited from earlier work.

Structures are written as SMILES. “Also recorded” adds a separate entry of the source. Where a name gives a salt, the structure may show the parent alone. Read-outs that look alike come from different tables or passages of the source.

serotonin transporter, sequence (P31645 whole entry): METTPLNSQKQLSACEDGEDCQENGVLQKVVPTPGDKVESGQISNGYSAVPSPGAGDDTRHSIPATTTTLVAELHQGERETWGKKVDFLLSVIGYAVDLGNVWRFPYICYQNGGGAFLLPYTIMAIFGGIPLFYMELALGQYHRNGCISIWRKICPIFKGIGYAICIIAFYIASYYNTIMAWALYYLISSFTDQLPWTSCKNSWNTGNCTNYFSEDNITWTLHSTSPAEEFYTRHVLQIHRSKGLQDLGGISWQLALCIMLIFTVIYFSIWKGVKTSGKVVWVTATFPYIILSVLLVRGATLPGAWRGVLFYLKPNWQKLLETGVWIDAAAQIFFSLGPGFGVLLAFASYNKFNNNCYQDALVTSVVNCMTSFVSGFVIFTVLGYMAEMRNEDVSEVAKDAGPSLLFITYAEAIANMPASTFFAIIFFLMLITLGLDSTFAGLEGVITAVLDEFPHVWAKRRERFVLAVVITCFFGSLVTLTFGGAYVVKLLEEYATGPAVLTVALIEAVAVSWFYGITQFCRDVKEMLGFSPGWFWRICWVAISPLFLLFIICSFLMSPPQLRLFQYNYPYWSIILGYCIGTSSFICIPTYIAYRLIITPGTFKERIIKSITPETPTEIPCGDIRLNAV

`Cc1ccc(Sc2ccccc2N2CCNCC2)c(C)c1` [D-(−)-tartrate, 1-[2-(2,4-dimethyl-phenylsulfanyl)-phenyl] piperazine]: the Solubility in series [1] is recorded as approximately 0.4 mg base/mL.
On to `CC(O)C(=O)O.Cc1ccc(Sc2ccccc2N2CCNCC2)c(C)c1` [DL-lactate β, 1-[2-(2,4-dimethyl-phenylsulfanyl)-phenyl] Piperazine, DL-Lactate], for which, in series [2], the aqueous solubility (in general, the concentration that dissolves in the medium under given conditions) is on record as 8 mg/mL. In series [2] (room temperature), the Solubility is 8 mg base/mL and the “pH at the solubility value” is given as 6.
With `Cc1ccc(Sc2ccccc2N2CCNCC2)c(C)c1` [L-(+)-tartrate, 1-[2-(2,4-dimethyl-phenylsulfanyl)-phenyl] piperazine], in series [1], the Solubility is reported as approximately 0.4 mg base/mL.
As for `Cc1ccc(Sc2ccccc2N2CCNCC2)c(C)c1` [Sulphate, 1-[2-(2,4-dimethyl-phenylsulfanyl)-phenyl] piperazine], the Solubility in series [1] is recorded as approximately 0.1 mg base/mL.
In the case of `Cc1ccc(Sc2ccccc2N2CCNCC2)c(C)c1` [Compound I, 1-[2-(2,4-dimethylphenylsulfanyl)phenyl]piperazine], the “action at the serotonin transporter” value at serotonin transporter was “inhibition”; at serotonin transporter (listed as compound I), “inhibitor”. For the same molecule, the “extracellular levels of serotonin, noradrenaline, dopamine and acetylcholine” value in series [3] was “increase”. Besides, the “action at the 5-HT3 receptor” value at 5-HT3 receptor is reported as “antagonist; also recorded: antagonism”. Also, the Solubility in series [1] (listed as Crystalline base) is reported as 0.1 mg base/mL.
Regarding `C[C@H](O)C(=O)O.Cc1ccc(Sc2ccccc2N2CCNCC2)c(C)c1` [L-lactate MH1, 1-[2-(2,4-dimethyl-phenylsulfanyl)-phenyl] Piperazine, L-Lactate], the “Solubility, bound given for a form that could not be measured” value in series [2] (room temperature, MH1 transforms into MH2 in aqueous slurry) is listed as “na (>26) mg base/mL”. Besides, the “transformation of crystal form in water” value in series [4] (listed as MH1) is on record as “transforms into the MH2 in aqueous slurry”.
In the case of `Cc1ccc(Sc2ccccc2N2CCNCC2)c(C)c1` [Meso-tartrate, 1-[2-(2,4-dimethyl-phenylsulfanyl)-phenyl] piperazine], the Solubility in series [1] was approximately 0.7 mg base/mL.
In the case of `Cc1ccc(Sc2ccccc2N2CCNCC2)c(C)c1` [Mesylate, 1-[2-(2,4-dimethyl-phenylsulfanyl)-phenyl] piperazine], the Solubility in series [1] was more than 45 mg base/mL.
`Cc1ccc(Sc2ccccc2N2CCNCC2)c(C)c1` [HCl, MH, 1-[2-(2,4-dimethyl-phenylsulfanyl)-phenyl] piperazine]: the Solubility in series [1] was 2.0 mg base/mL.
On to `Cc1ccc(Sc2ccccc2N2CCNCC2)c(C)c1` [Maleate, 1-[2-(2,4-dimethyl-phenylsulfanyl)-phenyl] piperazine], for which the Solubility in series [1] was approximately 1 mg base/mL.
Regarding `Cc1ccc(Sc2ccccc2N2CCNCC2)c(C)c1` [HBr, α-form, 1-[2-(2,4-dimethyl-phenylsulfanyl)-phenyl] piperazine], the Solubility in series [1] is listed as 2.0 mg base/mL.
In the case of `Cc1ccc(Sc2ccccc2N2CCNCC2)c(C)c1` [Nitrate, 1-[2-(2,4-dimethyl-phenylsulfanyl)-phenyl] piperazine], the Solubility in series [1] is listed as approximately 0.8 mg base/mL.
For the molecule `Cc1ccc(Sc2ccccc2N2CCNCC2)c(C)c1` [HBr, β-form, 1-[2-(2,4-dimethyl-phenylsulfanyl)-phenyl] piperazine], the Solubility in series [1] is given as 1.2 mg base/mL.
For the molecule `Cc1ccc(Sc2ccccc2N2CCNCC2)c(C)c1` [Fumarate, 1-[2-(2,4-dimethyl-phenylsulfanyl)-phenyl] piperazine], in series [1], the Solubility was 0.4 mg base/mL.
Take `Cc1ccc(Sc2ccccc2N2CCNCC2)c(C)c1` [HCl, 1-[2-(2,4-dimethyl-phenylsulfanyl)-phenyl] piperazine]: the Solubility in series [1] was 3.0 mg base/mL.
For the molecule `CC(O)C(=O)O.Cc1ccc(Sc2ccccc2N2CCNCC2)c(C)c1` [DL-lactate MH, 1-[2-(2,4-dimethyl-phenylsulfanyl)-phenyl] Piperazine, DL-Lactate], the “transformation of crystal form in water” value in series [4] is listed as “transformed into the beta form in aqueous slurry”.
For `C[C@H](O)C(=O)O.Cc1ccc(Sc2ccccc2N2CCNCC2)c(C)c1` [L-lactate AH1, 1-[2-(2,4-dimethyl-phenylsulfanyl)-phenyl] Piperazine, L-Lactate], in series [4] (listed as AH1), the “transformation of crystal form in water” value is “transforms into monohydrate when exposed to water”.
In the case of `CC(O)C(=O)O.Cc1ccc(Sc2ccccc2N2CCNCC2)c(C)c1` [DL-lactate α, 1-[2-(2,4-dimethyl-phenylsulfanyl)-phenyl] piperazine, DL-Lactate], the “transformation of crystal form in water” value in series [4] (listed as α form) is on record as “transformed into the β form in the aqueous slurry”.
Consider `Cc1ccc(Sc2ccccc2N2CCNCC2)c(C)c1` [Phosphate, 1-[2-(2,4-dimethyl-phenylsulfanyl)-phenyl] piperazine], for which the Solubility in series [1] is approximately 1 mg base/mL.
Turning to `CC(O)C(=O)O.Cc1ccc(Sc2ccccc2N2CCNCC2)c(C)c1` [DL-lactate γ, 1-[2-(2,4-dimethyl-phenylsulfanyl)-phenyl] Piperazine, DL-Lactate], the “transformation of crystal form in water” value in series [4] (listed as γ form) was “transforms into the beta form in aqueous slurry”.
Regarding `C[C@H](O)C(=O)O.Cc1ccc(Sc2ccccc2N2CCNCC2)c(C)c1` [L-lactate MH2, 1-[2-(2,4-dimethyl-phenylsulfanyl)-phenyl] Piperazine, L-Lactate], the aqueous solubility in series [2] is 26 mg/mL. In series [2] (room temperature), the Solubility is given as 26 mg base/mL and the “pH at the solubility value” is 5.2.
For the molecule `Br.Cc1ccc(Sc2ccccc2N2CCNCC2)c(C)c1` [HBr addition salt], the “level of sleep and sexually related adverse events” value in series [5] was “surprisingly low level”.

The values above are taken from patent US10857149B2, “Liquid formulations of salts of 1-[2-(2,4-dimethylphenylsulfanyl)phenyl]-piperazine” (H. Lundbeck A/S, priority 2009, dated 2020).
